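Test compounds were applied to cells in 96-well plates for 48 hours at 5 doses. Here, GI50 denotes the concentration required for 50% inhibition of growth.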 Calls of active or inactive are those of the source. Cut-off read from the data, not from the text of the source: active = GI50 up to about 1.1 µM and inactive = higher.
Legend:
Experiment in all cases: growth of human tumour cells (NCI), 48 h
[1] = test system: RXF 393
[2] = test system: HOP-62
[3] = test system: MOLT-4
[4] = test system: SNB-75
[5] = test system: SK-MEL-28
[6] = test system: CAKI-1
[7] = test system: ACHN
[8] = test system: M19-MEL
[9] = test system: Malme-3M
[10] = test system: U-251
[11] = test system: OVCAR-3
[12] = test system: DLD-1
[13] = test system: UO-31
[14] = test system: OVCAR-5
[15] = test system: A498
[16] = test system: SK-MEL-2
[17] = test system: LOX IMVI
[18] = test system: NCI-H23
[19] = test system: K562
[20] = test system: XF498
[21] = test system: A549
[22] = test system: SN12C
[23] = test system: SF-295
[24] = test system: HOP-92
[25] = test system: OVCAR-8
[26] = test system: OVCAR-4
[27] = test system: SK-MEL-5
[28] = test system: HT-29
[29] = test system: SK-OV-3
[30] = test system: HCT-15
[31] = test system: UACC-62
[32] = test system: NCI-H460
[33] = test system: UACC-257
[34] = test system: LXFL 529
[35] = test system: CCRF-CEM
[36] = test system: SNB-19
[37] = test system: NCI-H522
[38] = test system: EKVX
[39] = test system: DMS-273
[40] = test system: HL-60
[41] = test system: DMS-114
[42] = test system: SW-620
[43] = test system: HCC 2998
[44] = test system: SNB-78
[45] = test system: KM-20L2
[46] = test system: IGROV-1
[47] = test system: M14
[48] = test system: RPMI-8226
[49] = test system: SF-539
[50] = test system: RXF 631
[51] = test system: COLO 205
[52] = test system: SF-268
[53] = test system: KM12
[54] = test system: HOP-18
[55] = test system: TK-10
[56] = test system: NCI-H226
[57] = test system: 786-0
[58] = test system: HCT-116

NCCCNCCSSCc1ccccc1CSSCCNCCCN
GI50 [1]: > 100 µM (inactive) | GI50 [2]: > 100 µM (inactive) | GI50 [3]: 22 µM (inactive) | GI50 [4]: 16.4 µM (inactive) | GI50 [5]: 75 µM (inactive) | GI50 [6]: 35.7 µM (inactive) | GI50 [7]: 37 µM (inactive) | GI50 [8]: 50 µM (inactive) | GI50 [9]: 90.6 µM (inactive) | GI50 [10]: > 100 µM (inactive) | GI50 [11]: 73.8 µM (inactive) | GI50 [12]: 44.4 µM (inactive) | GI50 [13]: 60.5 µM (inactive) | GI50 [14]: > 100 µM (inactive) | GI50 [15]: > 100 µM (inactive) | GI50 [16]: > 100 µM (inactive) | GI50 [17]: 61.1 µM (inactive) | GI50 [18]: > 100 µM (inactive) | GI50 [19]: 23.6 µM (inactive) | GI50 [20]: 85.1 µM (inactive) | GI50 [21]: > 100 µM (inactive) | GI50 [22]: > 100 µM (inactive) | GI50 [23]: > 100 µM (inactive) | GI50 [24]: 25.9 µM (inactive) | GI50 [25]: > 100 µM (inactive) | GI50 [26]: 70.6 µM (inactive) | GI50 [27]: 79.3 µM (inactive) | GI50 [28]: 14.2 µM (inactive) | GI50 [29]: > 100 µM (inactive) | GI50 [30]: 57.1 µM | GI50 [31]: 34.1 µM (inactive) | GI50 [32]: > 100 µM (inactive) | GI50 [33]: 25 µM (inactive) | GI50 [34]: 30.4 µM (inactive) | GI50 [35]: 4.54 µM (inactive) | GI50 [36]: > 100 µM (inactive) | GI50 [37]: 10.7 µM (inactive) | GI50 [38]: > 100 µM (inactive) | GI50 [39]: > 100 µM (inactive) | GI50 [40]: 9.93 µM (inactive) | GI50 [41]: 57.3 µM (inactive) | GI50 [42]: 16.7 µM (inactive) | GI50 [43]: 81.5 µM (inactive) | GI50 [44]: 56.5 µM (inactive) | GI50 [45]: > 100 µM (inactive) | GI50 [46]: > 100 µM (inactive) | GI50 [47]: 31.9 µM (inactive) | GI50 [48]: 27.8 µM (inactive) | GI50 [49]: > 100 µM (inactive) | GI50 [50]: > 100 µM (inactive) | GI50 [51]: 39.4 µM (inactive) | GI50 [52]: 85.1 µM (inactive) | GI50 [53]: 49.9 µM (inactive) | GI50 [54]: > 100 µM (inactive) | GI50 [55]: > 100 µM (inactive)

Cc1ccc(C)c(NC(=O)C(=O)C2C(=O)N(c3ccccc3)N=C2N)c1 (configuration not stated)
GI50 [1]: > 100 µM (inactive) | GI50 [2]: > 100 µM (inactive) | GI50 [3]: > 100 µM (inactive) | GI50 [4]: > 100 µM (inactive) | GI50 [5]: > 100 µM (inactive) | GI50 [6]: > 100 µM (inactive) | GI50 [7]: > 100 µM (inactive) | GI50 [8]: > 100 µM (inactive) | GI50 [9]: > 100 µM (inactive) | GI50 [10]: > 100 µM (inactive) | GI50 [11]: > 100 µM (inactive) | GI50 [12]: > 100 µM (inactive) | GI50 [13]: > 100 µM (inactive) | GI50 [14]: > 100 µM (inactive) | GI50 [56]: > 100 µM (inactive) | GI50 [15]: > 100 µM (inactive) | GI50 [16]: > 100 µM (inactive) | GI50 [17]: > 100 µM (inactive) | GI50 [18]: > 100 µM (inactive) | GI50 [19]: 90.2 µM (inactive) | GI50 [57]: > 100 µM (inactive) | GI50 [20]: > 100 µM (inactive) | GI50 [21]: > 100 µM (inactive) | GI50 [22]: > 100 µM (inactive) | GI50 [23]: > 100 µM (inactive) | GI50 [24]: > 100 µM (inactive) | GI50 [25]: > 100 µM (inactive) | GI50 [26]: > 100 µM (inactive) | GI50 [27]: > 100 µM (inactive) | GI50 [28]: > 100 µM (inactive) | GI50 [30]: > 100 µM | GI50 [31]: > 100 µM (inactive) | GI50 [32]: > 100 µM (inactive) | GI50 [33]: > 100 µM (inactive) | GI50 [34]: > 100 µM (inactive) | GI50 [35]: > 100 µM (inactive) | GI50 [36]: > 100 µM (inactive) | GI50 [37]: > 100 µM (inactive) | GI50 [38]: > 100 µM (inactive) | GI50 [39]: > 100 µM (inactive) | GI50 [40]: 31.7 µM (inactive) | GI50 [42]: > 100 µM (inactive) | GI50 [43]: > 100 µM (inactive) | GI50 [44]: > 100 µM (inactive) | GI50 [45]: > 100 µM (inactive) | GI50 [46]: > 100 µM (inactive) | GI50 [58]: > 100 µM (inactive) | GI50 [47]: > 100 µM (inactive) | GI50 [48]: > 100 µM (inactive) | GI50 [49]: > 100 µM (inactive) | GI50 [50]: > 100 µM (inactive) | GI50 [52]: > 100 µM (inactive) | GI50 [53]: > 100 µM (inactive) | GI50 [54]: > 100 µM (inactive) | GI50 [55]: > 100 µM (inactive)

C=CCN(N=O)C(=O)N(CCC)CCCC(NC(C)=O)C(=O)NCc1ccccc1 (configuration not stated)
GI50 [1]: > 100 µM (inactive) | GI50 [2]: > 100 µM (inactive) | GI50 [3]: > 100 µM (inactive) | GI50 [4]: > 100 µM (inactive) | GI50 [5]: > 100 µM (inactive) | GI50 [6]: > 100 µM (inactive) | GI50 [7]: > 100 µM (inactive) | GI50 [8]: > 100 µM (inactive) | GI50 [9]: > 100 µM (inactive) | GI50 [10]: > 100 µM (inactive) | GI50 [11]: > 100 µM (inactive) | GI50 [13]: > 100 µM (inactive) | GI50 [14]: > 100 µM (inactive) | GI50 [15]: > 100 µM (inactive) | GI50 [16]: > 100 µM (inactive) | GI50 [17]: > 100 µM (inactive) | GI50 [18]: > 100 µM (inactive) | GI50 [19]: > 100 µM (inactive) | GI50 [57]: > 100 µM (inactive) | GI50 [20]: > 100 µM (inactive) | GI50 [21]: > 100 µM (inactive) | GI50 [22]: > 100 µM (inactive) | GI50 [23]: > 100 µM (inactive) | GI50 [25]: > 100 µM (inactive) | GI50 [26]: > 100 µM (inactive) | GI50 [27]: > 100 µM (inactive) | GI50 [28]: > 100 µM (inactive) | GI50 [29]: > 100 µM (inactive) | GI50 [30]: > 100 µM | GI50 [31]: > 100 µM (inactive) | GI50 [32]: > 100 µM (inactive) | GI50 [33]: > 100 µM (inactive) | GI50 [34]: > 100 µM (inactive) | GI50 [35]: > 100 µM (inactive) | GI50 [36]: > 100 µM (inactive) | GI50 [37]: > 100 µM (inactive) | GI50 [38]: > 100 µM (inactive) | GI50 [39]: > 100 µM (inactive) | GI50 [40]: > 100 µM (inactive) | GI50 [41]: > 100 µM (inactive) | GI50 [42]: > 100 µM (inactive) | GI50 [45]: > 100 µM (inactive) | GI50 [46]: > 100 µM (inactive) | GI50 [47]: > 100 µM (inactive) | GI50 [48]: > 100 µM (inactive) | GI50 [49]: > 100 µM (inactive) | GI50 [50]: > 100 µM (inactive) | GI50 [51]: > 100 µM (inactive) | GI50 [52]: > 100 µM (inactive) | GI50 [53]: > 100 µM (inactive) | GI50 [54]: > 100 µM (inactive) | GI50 [55]: > 100 µM (inactive)

From ChEMBL document CHEMBL1201862, “PubChem BioAssay data set” (2004)
